Measured values: US20260070945A1, “MACROCYCLIC IMMUNOMODULATORS” (Bristol-Myers Squibb Company, priority 2022, published 2026)
*1 amine or outer side, *2 acyl side, *3 side chain or, on linkers, in order; H or OH if unused. Where a SMILES comes first, the peptide text is derived from it. Bridges are numbered along the chain shown (N, C = ends). [ ]: non-standard residue; d: D form. The star is where a group is joined. ξ: configuration not given here. Phe(3-CF3) = N[C@@H](Cc1cccc(C(F)(F)F)c1)C(=O)O; Phe(4-COOH) = N[C@@H](Cc1ccc(C(=O)O)cc1)C(=O)O; Bip = N[C@@H](Cc1ccc(-c2ccccc2)cc1)C(=O)O; Phe(3-Me) = Cc1cccc(C[C@H](N)C(=O)O)c1; γGlu = O=C(O)[C@H](CCC(=O)[*:2])N[*:1]; NH(CH2)12COOH = O=C(O)CCCCCCCCCCCCN*; Val(3-OH) = CC(C)(O)[C@H](N)C(=O)O; 4Pal = N[C@@H](Cc1ccncc1)C(=O)O; Cha = N[C@@H](CC1CCCCC1)C(=O)O; Cit = NC(=O)NCCC[C@H](N)C(=O)O; Ile(3ξ) = CCC(C)[C@H](N)C(=O)O; Thr(3ξ) = CC(O)[C@H](N)C(=O)O; Carboxymethyl = O=C(O)C*; NMeA = CN[C@@H](C)C(=O)O; Orn = NCCC[C@H](N)C(=O)O; Aun = NCCCCCCCCCCC(=O)O; Dab = NCC[C@H](N)C(=O)O; AEEA = NCCOCCOCC(=O)O

Target: T1, PD-1/PD-L1 interaction (PE-labeled human PD-L1-Ig binding to Jurkat cell line over-expressing human PD-1) (Homo sapiens, UniProt Q15116)
T1 construct: expressed in transfected cells; host or cells: Jurkat
Assay: Jurkat-PD-1 Cell Binding High-Content Screening Assay (CBA)
Settings: Jurkat-hPD-1 cells, PE-labeled PD-L1-Ig 20 nM final; read-out: Jurkat HPD1 PDL1 IC50
How it was run: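 Compound is added first to the PD-1-expressing Jurkat cells and held 2 h at 37 °C in serum-containing DMEM. The fluorescent PD-L1 fusion follows at 20 nM final for 1 h. Fixed, Hoechst-stained cells are then imaged for bound label.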

T1 sequence (Q15116 25-288): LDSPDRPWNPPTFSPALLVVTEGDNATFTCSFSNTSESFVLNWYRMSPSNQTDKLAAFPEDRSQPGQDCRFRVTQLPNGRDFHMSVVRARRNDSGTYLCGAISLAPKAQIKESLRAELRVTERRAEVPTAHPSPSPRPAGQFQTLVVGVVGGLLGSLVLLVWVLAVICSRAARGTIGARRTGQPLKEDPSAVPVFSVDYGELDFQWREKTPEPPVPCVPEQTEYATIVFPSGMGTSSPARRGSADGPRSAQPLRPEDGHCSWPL

SMILES	IC50 [nM]
CC(C)C[C@H]1NC(=O)[C@H](C)N(C)C(=O)[C@H](CCC(N)=O)NC(=O)[C@H](Cc2ccc(-c3ccccc3)cc2)NC(=O)[C@H](Cc2ccc(C(=O)O)cc2)NC(=O)[C@H](Cc2cccc(C(F)(F)F)c2)NC(=O)[C@H](CC(=O)O)NC(=O)[C@H](Cc2ccc(OCC(=O)O)cc2)NC(=O)[C@H](Cc2ccc(C(=O)O)cc2)NC(=O)CSC[C@@H](C(=O)N[C@@H](CCN)C(=O)NCCOCCOCC(=O)N[C@@H](CCC(=O)NCCOCCOCC(=O)NCCCCCCCCCCCCC(=O)O)C(=O)O)NC(=O)[C@H](CC(=O)O)NC(=O)[C@H](C(C)(C)O)NC(=O)[C@H](CC2CCCCC2)NC(=O)[C@H](CCN)NC1=O [Example 1182] ({CH2CO}-[Phe(4-COOH)]Y(Carboxymethyl)D[Phe(3-CF3)][Phe(4-COOH)][Bip]Q[NMeA][dL][Dab][Cha][Val(3-OH)]DC[Dab][AEEA][γGlu][AEEA]-{NH(CH2)12COOH}; thioether N-14)	93
CC(C)C[C@@H]1NC(=O)[C@H](Cc2c[nH]c3ccccc23)NC(=O)[C@H](CC(=O)O)NC(=O)[C@H](Cc2ccc(C(=O)O)cc2)NC(=O)[C@H](Cc2ccc(OCC(=O)O)cc2)NC(=O)CSC[C@@H](C(=O)N[C@@H](CCN)C(=O)NCCCCCCCCCCC(=O)O)NC(=O)[C@H](CCCNC(N)=O)NC(=O)[C@H](C(C)C)NC(=O)[C@H](CC2CCCCC2)NC(=O)[C@H](CCN)NC(=O)[C@@H](CC(C)C)NC(=O)[C@H](C)N(C)C(=O)[C@H](C(C)C)NC(=O)[C@H](Cc2ccc(-c3ccccc3)cc2)NC1=O [Example 2188] ({CH2CO}-Y(Carboxymethyl)[Phe(4-COOH)]DWL[Bip]V[NMeA][dL][Dab][Cha]V[Cit]C[Dab][Aun]-OH; thioether N-14)	12.1
Cc1cccc(C[C@@H]2NC(=O)[C@H](CC(=O)O)NC(=O)[C@H](Cc3ccc(C(=O)O)cc3)NC(=O)[C@H](Cc3ccc(OCC(=O)O)cc3)NC(=O)CSC[C@@H](C(=O)N[C@@H](CCN)C(=O)NCCCCCCCCCCC(=O)O)NC(=O)[C@H](C(C)O)NC(=O)[C@H](C(C)C)NC(=O)[C@H](CC3CCCCC3)NC(=O)[C@H](CCN)NC(=O)[C@@H](CC(C)C)NC(=O)[C@H](C)N(C)C(=O)[C@H](CCCNC(N)=O)NC(=O)[C@H](Cc3ccc(-c4ccccc4)cc3)NC(=O)[C@H](CC(C)C)NC2=O)c1 (stereo partly drawn) [Example 2324] ({CH2CO}-Y(Carboxymethyl)[Phe(4-COOH)]D[Phe(3-Me)]L[Bip][Cit][NMeA][dL][Dab][Cha]V[Thr(3ξ)]C[Dab][Aun]-OH; thioether N-14)	12.8
COC[C@@H]1NC(=O)CSC[C@@H](C(=O)N[C@@H](CCN)C(=O)NCCOCCOCC(=O)N[C@@H](CCC(=O)NCCOCCOCC(=O)NCCCCCCCCCCCCC(=O)O)C(=O)O)NC(=O)[C@H](CCC(=O)O)NC(=O)[C@H](C(C)C)NC(=O)[C@H](CC2CCCCC2)NC(=O)[C@H](CCN)NC(=O)[C@@H](CC(C)C)NC(=O)[C@H](C)N(C)C(=O)[C@H](CCC(N)=O)NC(=O)[C@H](Cc2ccc(-c3ccccc3)cc2)NC(=O)[C@H](Cc2ccc(C(=O)O)cc2)NC(=O)[C@H](Cc2cccc(C(F)(F)F)c2)NC(=O)[C@H](CC(=O)O)NC(=O)[C@H](Cc2ccc(OCC(=O)O)cc2)NC1=O [Example 1163] ({CH2CO}-S(Me)Y(Carboxymethyl)D[Phe(3-CF3)][Phe(4-COOH)][Bip]Q[NMeA][dL][Dab][Cha]VEC[Dab][AEEA][γGlu][AEEA]-{NH(CH2)12COOH}; thioether N-14)	15.2
Cc1cccc(C[C@@H]2NC(=O)[C@H](CC(=O)O)NC(=O)[C@H](Cc3ccc(OCC(=O)O)cc3)NC(=O)[C@H](CCCNC(=N)N)NC(=O)CSC[C@@H](C(=O)N[C@@H](CCCCN)C(=O)NCCCCCCCCCCC(=O)O)NC(=O)[C@H]([C@@H](C)O)NC(=O)[C@H](C(C)C)NC(=O)[C@H](CC3CCCCC3)NC(=O)[C@H](CCN)NC(=O)[C@@H](CC(C)C)NC(=O)[C@H](C)N(C)C(=O)[C@H](Cc3ccc(OCC(=O)O)cc3)NC(=O)[C@H](Cc3ccc(-c4ccccc4)cc3)NC(=O)[C@H](CCCNC(N)=O)NC2=O)c1 [Example 1227] ({CH2CO}-RY(Carboxymethyl)D[Phe(3-Me)][Cit][Bip]Y(Carboxymethyl)[NMeA][dL][Dab][Cha]VTCK[Aun]-OH; thioether N-14)	33.9
CCC(C)[C@@H]1NC(=O)[C@H](Cc2ccc(-c3ccccc3)cc2)NC(=O)[C@H](CC(C)C)NC(=O)[C@H](Cc2c[nH]c3ccccc23)NC(=O)[C@H](CC(=O)O)NC(=O)[C@H](Cc2ccc(OCC(=O)O)cc2)NC(=O)[C@H](Cc2ccncc2)NC(=O)CSC[C@@H](C(=O)NCCOCCOCC(=O)N[C@@H](CCC(=O)NCCCCCCCCCCC(=O)O)C(=O)O)NC(=O)[C@H](CO)NC(=O)[C@H](C(C)C)NC(=O)[C@H](CC2CCCCC2)NC(=O)[C@H](CCN)NC(=O)[C@@H](CC(C)C)NC(=O)[C@H](C)N(C)C1=O (stereo partly drawn) [Example 2045] ({CH2CO}-[4Pal]Y(Carboxymethyl)DWL[Bip][Ile(3ξ)][NMeA][dL][Dab][Cha]VSC[AEEA][γGlu][Aun]-OH; thioether N-14)	26.9
CC(C)C[C@@H]1NC(=O)[C@H](Cc2c[nH]c3ccccc23)NC(=O)[C@H](CC(=O)O)NC(=O)[C@H](Cc2ccc(OCC(=O)O)cc2)NC(=O)[C@H](Cc2ccc(OCC(=O)O)cc2)NC(=O)CSC[C@@H](C(=O)NCCOCCOCC(=O)N[C@@H](CCN)C(=O)NCCCCCCCCCCC(=O)O)NC(=O)[C@H](CCCN)NC(=O)[C@H](C(C)C)NC(=O)[C@H](CC2CCCCC2)NC(=O)[C@H](CCN)NC(=O)[C@@H](CC(C)C)NC(=O)[C@H](C)N(C)C(=O)[C@H](C(C)C)NC(=O)[C@H](Cc2ccc(-c3ccccc3)cc2)NC1=O [Example 2158] ({CH2CO}-Y(Carboxymethyl)Y(Carboxymethyl)DWL[Bip]V[NMeA][dL][Dab][Cha]V[Orn]C[AEEA][Dab][Aun]-OH; thioether N-14)	20
CC[C@H](C)[C@@H]1NC(=O)[C@H](Cc2ccc(-c3ccccc3)cc2)NC(=O)[C@H](CC(C)C)NC(=O)[C@H](Cc2c[nH]c3ccccc23)NC(=O)[C@H](CC(=O)O)NC(=O)[C@H](Cc2ccc(C(=O)O)cc2)NC(=O)[C@H](Cc2ccc(OCC(=O)O)cc2)NC(=O)CSC[C@@H](C(=O)N[C@@H](Cc2c[nH]cn2)C(=O)NCCCCCCCCCCC(=O)O)NC(=O)[C@H](CO)NC(=O)[C@H](C(C)C)NC(=O)[C@H](CC2CCCCC2)NC(=O)[C@H](CCN)NC(=O)[C@@H](CC(C)C)NC(=O)[C@H](C)N(C)C1=O [Example 1075] ({CH2CO}-Y(Carboxymethyl)[Phe(4-COOH)]DWL[Bip]I[NMeA][dL][Dab][Cha]VSCH[Aun]-OH; thioether N-14)	20.2
CC(C)C[C@H]1NC(=O)[C@H](C)N(C)C(=O)[C@H](CCC(N)=O)NC(=O)[C@H](Cc2ccc(-c3ccccc3)cc2)NC(=O)[C@H](Cc2ccc(C(=O)O)cc2)NC(=O)[C@H](Cc2cccc(C(F)(F)F)c2)NC(=O)[C@H](CC(=O)O)NC(=O)[C@H](Cc2ccc(OCC(=O)O)cc2)NC(=O)[C@H](Cc2ccc(C(=O)O)cc2)NC(=O)CSC[C@@H](C(=O)N[C@@H](CCN)C(=O)NCCOCCOCC(=O)N[C@@H](CCC(=O)NCCOCCOCC(=O)NCCCCCCCCCCCCC(=O)O)C(=O)O)NC(=O)[C@H](CCC(=O)O)NC(=O)[C@H](C(C)C)NC(=O)[C@H](CC2CCCCC2)NC(=O)[C@H](CCN)NC1=O [Example 1183] ({CH2CO}-[Phe(4-COOH)]Y(Carboxymethyl)D[Phe(3-CF3)][Phe(4-COOH)][Bip]Q[NMeA][dL][Dab][Cha]VEC[Dab][AEEA][γGlu][AEEA]-{NH(CH2)12COOH}; thioether N-14)	94.1
CC(C)C[C@@H]1NC(=O)[C@H](Cc2c[nH]c3ccccc23)NC(=O)[C@H](CC(=O)O)NC(=O)[C@H](Cc2ccc(C(=O)O)cc2)NC(=O)[C@H](Cc2ccc(OCC(=O)O)cc2)NC(=O)CSC[C@@H](C(=O)NCC(=O)N[C@@H](CCCCN)C(=O)NCCCCCCCCCCC(=O)O)NC(=O)[C@H](CO)NC(=O)[C@H](C(C)C)NC(=O)[C@H](CC2CCCCC2)NC(=O)[C@H](CCN)NC(=O)[C@@H](CC(C)C)NC(=O)[C@H](C)N(C)C(=O)[C@H](C(C)C)NC(=O)[C@H](Cc2ccc(-c3ccccc3)cc2)NC1=O [Example 1039] ({CH2CO}-Y(Carboxymethyl)[Phe(4-COOH)]DWL[Bip]V[NMeA][dL][Dab][Cha]VSCGK[Aun]-OH; thioether N-14)	12.8
CC(C)C[C@@H]1NC(=O)[C@H](Cc2c[nH]c3ccccc23)NC(=O)[C@H](CC(=O)O)NC(=O)[C@H](Cc2ccc(C(=O)O)cc2)NC(=O)[C@H](Cc2ccc(OCC(=O)O)cc2)NC(=O)CSC[C@@H](C(=O)N[C@@H](CCCCN)C(=O)NCCOCCOCC(=O)NCCCCCCCCCCC(=O)O)NC(=O)[C@H](CO)NC(=O)[C@H](C(C)C)NC(=O)[C@H](CC2CCCCC2)NC(=O)[C@H](CCN)NC(=O)[C@@H](CC(C)C)NC(=O)[C@H](C)N(C)C(=O)[C@H](C(C)C)NC(=O)[C@H](Cc2ccc(-c3ccccc3)cc2)NC1=O [Example 2096] ({CH2CO}-Y(Carboxymethyl)[Phe(4-COOH)]DWL[Bip]V[NMeA][dL][Dab][Cha]VSCK[AEEA][Aun]-OH; thioether N-14)	11.8

Same assay, conditions: PE-labeled PD-L1-Ig 20 nM final, Jurkat-hPD-1 cells; read-out: Jurkat HPD1 PDL1 IC50

SMILES	IC50 [nM]
CC(C)C[C@H]1NC(=O)[C@H](C)N(C)C(=O)[C@H](Cc2ccc(OCC(=O)O)cc2)NC(=O)[C@H](Cc2ccc(-c3ccccc3)cc2)NC(=O)[C@H](Cc2ccc(C(=O)O)cc2)NC(=O)[C@H](Cc2cccc(C(F)(F)F)c2)NC(=O)[C@H](CC(=O)O)NC(=O)[C@H](Cc2ccc(OCC(=O)O)cc2)NC(=O)[C@H](Cc2cnc[nH]2)NC(=O)CSC[C@@H](C(=O)N[C@@H](CCN)C(=O)NCCCCCCCCCCC(=O)O)NC(=O)[C@H](C(C)O)NC(=O)[C@H](C(C)C)NC(=O)[C@H](CC2CCCCC2)NC(=O)[C@H](CCN)NC1=O (stereo partly drawn) [Example 2580] ({CH2CO}-HY(Carboxymethyl)D[Phe(3-CF3)][Phe(4-COOH)][Bip]Y(Carboxymethyl)[NMeA][dL][Dab][Cha]V[Thr(3ξ)]C[Dab][Aun]-OH; thioether N-14)	6.8
